# Data from US20230250182A1, “METHODS FOR TREATING CANCER OR VON-HIPPEL LINDAU DISEASE USING A COMBINATION OF A PD-1 ANTAGONIST, A HIF-2 ALPHA INHIBITOR, AND LENVATINIB OR A PHARMACEUTICALLY ACCEPTABLE SALT THEREOF” (Merck Sharp & Dohme LLC, priority 2020, published 2023).
# Columns and labels:
# KPC-2838c3 cells = assay: VHL proficient mouse syngeneic pancreatic tumor model; assay type: in vivo, C57BL/6J mice; conditions: for Final CRs (complete tumor regressions) / Final PRs (partial tumor regressions): 10 mice per group; for Final CRs (complete tumor regressions): CR = no observable tumor; for Final PRs (partial tumor regressions): PR = tumor volume lower than original size when treatment began; for TGI (tumor growth inhibition): Day 24, MK-6482 3 mg/kg BID oral, lenvatinib 10 mg/kg QD oral, anti-PD-1 10 mg/kg i.p. every 5 days
# Text: Prior to treatment initiation, female C57BL/6J mice aged 7 weeks weighing between 18 to 21 grams were anesthetized and injected into the rear flank with 0.5×10^6 log-phase sub-confluent KPC-2838c3 cells. Ten (10) days later when the mean tumor volume of inoculated animals reached approximately 95 mm^3, mice were pair-matched into 8 treatment groups consisting of 10 mice per group. Treatment groups consisted of: 1) 0.5% methylcellulose (Vehicle)+Isotype mouse IgG1 antibody (mIgG1); 2) MK-6482+mIgG1; 3) Lenvatinib+mIgG1; 4) Vehicle+anti-mouse PD-1 IgG1 antibody; 5) MK-6482+anti-PD-1; 6) Lenvatinib+anti-PD-1; 7) MK-6482+Lenvatinib; 8) MK-6482+Lenvatinib+anti-PD-1. Vehicle and MK-6482 were orally gavage-dosed twice daily (BID) at 3 mg/kg body weight. Lenvatinib was orally dosed once daily (QD) at 10 mg/kg body weight. Isotype control, a mouse monoclonal antibody specific for adenoviral hexon of the isotype IgG1, and anti-PD-1 antibodies were dosed intraperitoneally every 5 days at 10 mg/kg body weight. Start of treatments was considered Day 0 and dosing based on schedules continued as described until Day 45. Caliper measurements of tumors and body weights were captured twice weekly. Statistical analyses were performed by one-way ANOVA with Tukey multiple comparison tests at the timepoints specified when treatment groups reached endpoints.
# CRs were defined as no observable tumor whereas PRs were tumors whose volume was lower than the original tumor size when treatment began. There was no significant body weight loss or adverse events observed in any animals treated with the above therapies, indicating the treatments were well tolerated.
# [1] = FIH Phase 1 study of tolerability, safety, PK and PD of MK-6482 in participants with advanced solid tumors; assay type: in vivo, human
# Description: As of 6 Sep. […] 52 additional participants with advanced RCC were treated in an expansion cohort (Part 1B) at the clinical dose of 120 mg QD.
# [2] = Phase 2 open-label efficacy and safety study in VHL disease associated RCC; assay type: in vivo, human; conditions: 120 mg QD, 61 participants with VHL disease associated RCC
# Text: A Phase 2, open-label efficacy and safety study in participants with VHL disease associated RCC is ongoing. As of 6 Sep.
# [3] = Phase 1 cross-over food-effect PK study of single dose MK-6482 in healthy volunteers; assay type: in vivo, human; conditions: single dose of 120 mg, healthy female adult volunteers
# [4] = combined dose escalation and expansion cohorts
# [5] = dose escalation (Part 1A) 20 to 240 mg QD and 120 mg BID
Compound,Final CRs (complete tumor regressions) (KPC-2838c3 cells),Final PRs (partial tumor regressions) (KPC-2838c3 cells),TGI (tumor growth inhibition) (KPC-2838c3 cells),Grade 3 event of hypoxia (DLT) ([1]; 120 mg BID cohort),accumulation from Day 1 to Day 15 ([1]; 120 mg QD expansion cohort (Part 1B)),"Cmax ([1]; 120 mg QD expansion cohort (Part 1B), Day 15, read-out: mean steady state Cmax)",Grade 4 event of thrombocytopenia (DLT) ([1]; 240 mg QD cohort),"most common AEs (occurring in ≥20% of participants) [1, 4]","most common Grade 3 AEs (in ≥5% of participants) [1, 4]","MTD [1, 5]","treatment-related DLTs observed [1, 5]","Vd/F ([1]; human, in vivo)","estimated CL/F ([1]; human, in vivo)","Tmax ([1]; human, in vivo, participants with advanced solid tumors, oral, read-out: median tmax)",exposure versus dose ([1]; participants with advanced solid tumors),most common AE of ≥Grade 3 toxicity (reported by ≥5% of participants) [2],"delay of time to peak MK-6482 exposure, median difference (Fed-Fasted) [3]",most common adverse event (AE) reported: headache [3],"effect of high fat, high calorie meal on extent of MK-6482 exposure ([3]; fed vs fasted)","lowering of maximum plasma MK-6482 concentration by high fat, high calorie meal ([3]; fed vs fasted)"
"COc1cc2nccc(Oc3ccc(NC(=O)NC4CC4)c(Cl)c3)c2cc1C(N)=O [Lenvatinib, 4-[3-chloro-4-(cyclopropylaminocarbonyl)aminophenoxy]-7-methoxy-6-quinolinecarboxamide]","0/10 PRs, 0/10 CRs","0/10 PRs, 0/10 CRs",90%,–,–,–,–,–,–,–,–,–,–,–,–,–,–,–,–,–
"CS(=O)(=O)c1ccc(Oc2cc(F)cc(C#N)c2)c2c1[C@H](O)[C@H](F)[C@@H]2F [MK-6482, 3-[(1S,2S,3R)-2,3-difluoro-1-hydroxy-7-methylsulfonyl-indan-4-yl]oxy-5-fluoro-benzonitrile]","0/10 PRs, 0/10 CRs","0/10 PRs, 0/10 CRs",16%,1,1.5 fold,4.67 µM,1,"anemia, fatigue, dyspnea, nausea, and peripheral edema",anemia and hypoxia,not reached,2,106 to 266 L,5.22 to 14.4 L/h,1 to 2.8 h,exposure increased with dose,Fatigue,2 h,12.5%,did not affect,approximately 35%
